Values joined by “and” are separate entries in the source; they are usually repeats but may differ in a detail not shown here. Equal values may be shown once. “Also recorded” adds a separate entry of the source.
Tests used:
T47D cells = assay: E1 induced proliferation of T47D cells, 7 days, cell count; assay type: cell-based, human; details: FIG. 1
Description: Two days prior to testing of compounds, growth medium was changed to medium without phenol red, supplemented with 2 mmol^·l^−1 Glutamax and 4% FBS depleted of lipophilic components (including the endogenous estrogenic substances) (Hyclone, GE Healthcare Life Sciences, USA). Two days after the medium replacement, the cells were harvested, counted and resuspended in a medium. Cells were dispensed with liquid dispenser Multidrop (Thermo Fisher Scientific, Waltham, USA), to the cell culture treated, 12-well plates (Corning Inc., NY, USA) at 100 000 cells/well in 1 mL of total media volume. Compounds diluted in the medium were added 24 h later and cells were incubated for 7 more days with or without 1 μmol^·l^−1 E1. Growth medium was changed during the experiment on day 3, and freshly diluted compounds were added to cells again. After 7 days of cell cultivation with compounds, cells were harvested and counted. Cell number was normalized and 100% was attributed to cells cultivated in the presence of 1 μmol^·l^−1 E1 and 0% to the cells cultivated without any added compound.

CEM = assay: MTT cytotoxicity assay, CEM; assay type: cell-based; details: Homo sapiens, CCRF-CEM
Description: (§1) Compounds 5, 6, 7, 9, 14 and 15 were used for evaluation of antitumor activity. MTT cytotoxicity assay was used in vitro on cell lines derived from normal tissues and from tumors. Specifically, these were the K562 line (human myeloid leukemia), K562-Tax (human myeloid leukemia resistant to taxol and overexpressing PgP protein for multidrug resistance), CEM (T-lymphoblastic leukemia), CEM-DNR bulk (T-lymphoblastic leukemia resistant doxorubicin, lacking the expression of the target gene for inhibitors of topoisomerase II alpha), A549 line (human lung adenocarcinoma), HCT116p53 wt (human colon cancer), HCT116p53−/− (human colon cancer, mutant p53), U2OS line of human osteosarcoma and two fibroblast lines MRC5 and BJ as examples of non-tumor cells. Expression characteristics, profiles of susceptibility to classical antitumor drugs and methodology of the MTT cytotoxicity assay were repeatedly published (e.g. Noskova et al. Neoplasma 2002, 49, 418; S̆arek et. al. J. Med. Chem. 2003, 46, 25, 5402).

CEM-DNR-bulk = assay: MTT cytotoxicity assay, CEM-DNR-bulk; assay type: cell-based
Description: as §1

K562 = assay: MTT cytotoxicity assay, K562; assay type: cell-based; details: Homo sapiens
Description: as §1

K562-Tax = assay: MTT cytotoxicity assay, K562-Tax; assay type: cell-based; details: Homo sapiens
Description: as §1

A549 = assay: MTT cytotoxicity assay, A549; assay type: cell-based; details: Homo sapiens
Description: as §1

HCT116p53 wt = assay: MTT cytotoxicity assay, HCT116p53 wt; assay type: cell-based; details: Homo sapiens
Description: as §1

HCT116p53-/- = assay: MTT cytotoxicity assay, HCT116p53-/-; assay type: cell-based; details: Homo sapiens
Description: as §1

U2OS = assay: MTT cytotoxicity assay, U2OS; assay type: cell-based; details: Homo sapiens
Description: as §1

BJ = assay: MTT cytotoxicity assay, BJ fibroblasts; assay type: cell-based; details: Homo sapiens, non-tumor fibroblasts
Description: as §1

MRCS = assay: MTT cytotoxicity assay, MRC5 fibroblasts; assay type: cell-based; details: Homo sapiens, Fibroblast, non-tumor fibroblasts
Description: as §1

17βHSD = assay: Inhibition of 17βHSD in vivo, E2 in plasma of mice; design: species or system mice (NMRI); details: 20 mg/kg daily, orally; for E2 in plasma, individual mice: 20 mg/kg
embryo = assay: Toxicity in the CAM model, dead and surviving embryos; assay type: in vivo, White Leghorn eggs; details: 50 μmol·l^−1, after 6 days of treatment, FIG. 2C
Method: The toxicity after 6 days of the treatment was characterized by the number of dead embryos, eventual visible macroscopic abnormalities were evaluated as well.

human 17βHSD1 [1] = target: T1, human 17βHSD1 (Homo sapiens, UniProt P14061); assay: 17βHSD inhibition in CHO cells transfected with human 17βHSD1, E1 in supernatant; assay type: cell-based; design: expressed in transfected cells; details: 10 μmol·l^−1
T1 sequence (P14061 1-328): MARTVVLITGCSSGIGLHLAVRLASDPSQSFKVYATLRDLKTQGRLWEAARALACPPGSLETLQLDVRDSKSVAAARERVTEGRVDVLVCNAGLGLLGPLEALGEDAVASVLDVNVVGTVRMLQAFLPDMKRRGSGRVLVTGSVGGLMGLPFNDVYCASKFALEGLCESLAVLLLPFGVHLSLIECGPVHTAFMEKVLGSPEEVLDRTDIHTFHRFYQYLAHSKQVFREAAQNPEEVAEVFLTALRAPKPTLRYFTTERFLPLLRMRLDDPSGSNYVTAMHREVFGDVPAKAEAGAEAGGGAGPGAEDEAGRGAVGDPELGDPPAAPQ
Method: (§2) For this experiment, non-cytotoxic concentrations of estrone derivative (10 μmol·l^−1) were used. E1 levels were determined by an immuno-enzymatic assay.

human 17βHSD1 [2] = target: T1, human 17βHSD1; assay: 17βHSD inhibition in MCF-7 cells transfected with human 17βHSD1, E1 in supernatant; assay type: cell-based; design: expressed in transfected cells; host or cells: MCF-7; details: 10 μmol·l^−1
Method: as §2

SMILES: COc1ccc(CC[C@@H]2CC(=O)[C@@]3(C)CC[C@@H]4c5ccc(O)cc5CC[C@H]4[C@H]23)cc1 [Compound 9, 3-Hydroxy-15β-(4-methoxyphenethyl)-estra-1,3,5 (10)-trien-17-one]
- effect on T47D proliferation, compound alone (T47D cells; 1 μmol·l^−1, without E1, 7 days): weakly pro-proliferative
- effect on E1-induced proliferation of T47D cells (T47D cells; incubated together with 0.1 nmol·l^−1 E1, 7 days): reverses the pro-proliferative activity of E1; also recorded: blocks E1-induced proliferation
- IC50 (CEM): 21.4 µM
- IC50 (CEM-DNR-bulk): 22.1 µM
- IC50 (K562): 27.7 µM
- IC50 (K562-Tax): 9.12 µM
- IC50 (A549): 41 µM
- IC50 (HCT116p53 wt): 29.4 µM
- IC50 (HCT116p53-/-): 35.7 µM
- IC50 (U2OS): 45.3 µM
- IC50 (BJ): > 50 µM
- IC50 (MRCS): > 50 µM
- E2 in plasma, mean value ± σ (17βHSD; 7 days): 5693 ± 1034 pg/mL
- E2 in plasma, individual mice (17βHSD; 7 days): 4927 pg/mL and 4357 pg/mL and 6020 pg/mL and 7379 pg/mL and 5857 pg/mL and 5617 pg/mL
- E2 in plasma, mean value ± σ (17βHSD; 14 days): 3874 ± 1253 pg/mL
- E2 in plasma, individual mice (17βHSD; 14 days): 6020 pg/mL and 2668 pg/mL and 2657 pg/mL and 3566 pg/mL and 4312 pg/mL and 4025 pg/mL
- toxicity, dead/alive eggs (embryo): No specific toxicity
- E1 in supernatant, CHO (human 17βHSD1 [1]; 8 hr.): 1171 pg/mL
- E1 in supernatant, CHO (human 17βHSD1 [1]; 24 hr.): 739 pg/mL
- E1 in supernatant, MCF-7 (human 17βHSD1 [2]; 8 hr.): 1300 pg/mL
- E1 in supernatant, MCF-7 (human 17βHSD1 [2]; 24 hr.): 1182 pg/mL

SMILES: CCOc1ccc(CC[C@@H]2CC(=O)[C@@]3(C)CC[C@@H]4c5ccc(O)cc5CC[C@H]4[C@H]23)cc1 [Compound 12, 15β-(4-Ethoxyphenethyl)-3-hydroxy-estra-1,3,5(10)-trien-17-one]
- melting point: 173 °C
